Read-outs that look alike come from different tables or passages of the source. One block for each compound: values may come before it.
Key:
angiogenin (ANG) = angiogenin (ANG) (Homo sapiens, UniProt P03950); test: Inhibition of ANG ribonucleolytic activity, HPLC assay of oligonucleotide cleavage; assay type: biochemical
Description: Reaction mixtures with and without test compounds were chromatographed on a Mono Q anion-exchange column with an NaCl gradient in 10 mM Tris, pH 8. […] This information was used to calculate kcat/Km values, which were then fitted to the equation (kcat/Km)i=(kcat/Km)0/[…], where (kcat/Km)i and (kcat/Km)0 are defined as the values in the presence and absence of inhibitor, respectively, and [I] is defined as the inhibitor concentration. At least four concentrations (in a range of about 10 μM-above 100 μM) were used in the final hit confirmation in order to distinguish all true hits.
Chemical structures of selected compounds are shown in these Tables and in FIGS. 4 and 5.

MMLV RT RNase H = MMLV RT RNase H (Moloney murine leukemia virus, UniProt P03355); test: Inhibition of RT-based RNase H cleavage of RNA:DNA hybrid; assay type: biochemical; settings: for % Cleavage: no inhibitor: 36%, 5 min at 37 C
Description: As described above, Chembridge compound #467929 offered protection from several RNA-specific endonucleolytic activities. […] A 20-mer DNA oligonucleotide was asymmetrically annealed to a 1500 base synthetic RNA to create an RNA:DNA duplex substrate for RNase H. Reactions were initiated with 10 U of MMLV RT in 1×RT buffer (50 mM TrisCl pH 8.3, 75 mM KCl, 3 mM MgCl2, 5 mM DTT) containing 500 ng/ul RNA:DNA hybrid. All reactions contained 5% DMSO either with or without the small molecule RNase inhibitor. Samples were incubated for 5 min at 37 C, and quenched with EDTA. Products were resolved on an RNA LabChip. Cleavage products were observed as two equally represented RNA species of 1000 and 500 bases. Product length and yield were determined using the 2100 BioAnalyzer software (Agilent). Table 4 details the level of inhibition of MMLV RT RNase H that is observed as a function of the concentration of compounds 467929 and 227726.

[1] = biological target: T1, bovine pancreatic RNase A (Bos taurus, UniProt P61823); test: Inhibition of bovine pancreatic RNase A (specificity versus ANG); assay type: biochemical
T1 sequence (P61823 27-150): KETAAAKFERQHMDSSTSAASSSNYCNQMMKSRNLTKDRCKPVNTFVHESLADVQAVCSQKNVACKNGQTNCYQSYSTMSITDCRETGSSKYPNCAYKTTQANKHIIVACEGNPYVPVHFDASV

[2] = test system: PC-3 human prostate tumor cells; test: PC-3 tumor formation in athymic mice; assay type: in vivo; settings: PC-3 s.c.
Description: Compound NCI-65828 was identified by HTS as an ANG inhibitor. […] Each compound was administered 6 times per week, in doses of 40 μg, 8 μg, and 1.6 μg (about 2, 0.4 and 0.08 mg/kg/day). The compound was dissolved in DMSO, and control mice received a corresponding volume of DMSO (4%, 0.8% and 0%). Another control group received saline.
Another in vivo mouse experiment was performed using 8 or 12 mice per group. The experimental group was administered PC-3 cells and NCI-65828, as intraperitoneal injections (40 μg and 8 μg). A control group of mice was administered PC-3 cells and a related compound that was known to be ineffective at inhibiting ANG enzymatic activity. Mice were evaluated for number of animals that remained tumor free as a function of time, at intervals of 3 days from days 14-42 following the initial injection.
Concentrated stocks of inhibitors were prepared in dimethylsulfoxide (DMSO), and the inhibitors were diluted into phosphate-buffered saline (PBS); the final DMSO concentration for the 40 μg and 20 μg doses was 4% in PBS, and that for the 8 μg and 4 μg doses was 0.8% in PBS. Statistical significance (P values) was determined from Mantel-Cox tests performed on Kaplan-Meier survivor functions. Results for inhibitor-treated groups were compared to results obtained with the appropriate DMSO control groups. A positive control group of mice, administered antisense DNA specific for the ANG gene in PBS (no DMSO), was also included. ANG antisense DNA was shown previously to be extremely effective in this tumor model.
Tumor cells from a human prostate cancer (PC-3) were injected subcutaneously (s.c.) in the shoulder of 6-7 week old athymic (nude) mice on day 0. Treatment with the indicated amount of inhibitor (in 100 μL) was given subcutaneously in the same area as the cells, 6 times per week, with the first injection 5-10 minutes prior to injection of the cells. The total dosage was 0.4 mg to 2 mg per kg per day.

E. coli RNase I = E. coli RNase I (Escherichia coli, UniProt P21338); test: Intactness of total RNA challenged with purified RNase; assay type: biochemical; settings: 100 uM inhibitor; E. coli RNase I 7 ng/ul; 100 ng/ul mouse liver total RNA, 23° C., 4 min
[3] = 20 mM Hepes, 100 mM NaCl, pH 7.0, 37° C., read-out: Ki for inhibition of the ribonucleolytic activity of angiogenin
[4] = inhibition of ANG-catalyzed cleavage of an RNA oligonucleotide, 20 mM Hepes, 100 mM NaCl, 37° C., read-out: KI

Chain of angiogenin (ANG) (P03950 25-147): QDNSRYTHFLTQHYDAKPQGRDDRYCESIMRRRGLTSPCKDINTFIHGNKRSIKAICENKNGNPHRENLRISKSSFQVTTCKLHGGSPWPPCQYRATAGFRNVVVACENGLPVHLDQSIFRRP
Chain of E. coli RNase I (P21338 24-268): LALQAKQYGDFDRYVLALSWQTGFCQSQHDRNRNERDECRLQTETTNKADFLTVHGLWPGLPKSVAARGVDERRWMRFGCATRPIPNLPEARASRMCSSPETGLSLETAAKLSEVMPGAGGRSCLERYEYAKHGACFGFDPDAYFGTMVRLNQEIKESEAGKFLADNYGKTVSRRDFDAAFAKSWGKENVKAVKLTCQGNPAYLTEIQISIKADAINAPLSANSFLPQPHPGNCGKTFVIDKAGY

Compound: O=C(Nc1ccc(Cc2ccc(NC(=O)c3cccc([N+](=O)[O-])c3)c(C(=O)O)c2)cc1C(=O)O)c1cccc([N+](=O)[O-])c1 [CB-467929]
Ki (angiogenin (ANG); [3]): 24 µM
IC50 (MMLV RT RNase H): ~20 µM
% Cleavage (MMLV RT RNase H; inhibitor 8 μM): 42%
% Cleavage (MMLV RT RNase H; inhibitor 40 μM): 8%

Ki (angiogenin (ANG); [3]): 20 µM
Tighter binding to ANG than to RNase A [1]: 2.3 fold
Compound: O=C(Nc1ccc(Cc2ccc(NC(=O)c3ccc(-c4ccccc4)cc3)c(C(=O)O)c2)cc1C(=O)O)c1ccc(-c2ccccc2)cc1 [CB-473872]

Compound: O=[N+]([O-])c1cc(/N=N/c2c(O)ccc3cc(S(=O)(=O)O)ccc23)c(O)c([N+](=O)[O-])c1 [NCI-65820]
Ki (angiogenin (ANG); read-out: KI): 25 µM
Tighter binding to ANG than to RNase A [1]: 1.5 fold

Compound: O=C(N/N=C(\c1ccccc1)c1ccncc1)c1ccccc1 [NCI-227726, N′-[phenyl(4-pyridinyl)methylene] benzohydrazide, reference compound]
% Cleavage (MMLV RT RNase H; inhibitor 100 μM): 45%
% Cleavage (MMLV RT RNase H; inhibitor 524 μM): 43%
% Cleavage (MMLV RT RNase H; inhibitor 1000 μM): 47%

Ki (angiogenin (ANG); read-out: KI): 83 µM
Compound: O=S(=O)(O)c1cc(S(=O)(=O)O)c2c(/N=N/c3ccccc3)c(O)ccc2c1 [Orange G]

Ki (angiogenin (ANG); read-out: KI): > 500 µM
Compound: Nc1ccc2cc(S(=O)(=O)O)cc(O)c2c1N=Nc1ccccc1S(=O)(=O)c1ccccc1 [S321443]

Compound: Nc1ccc(/N=N/c2ccc(-c3ccc(O)cc3)cc2)c2ccc(S(=O)(=O)O)cc12 [Tyger-65828]
Ki for inhibition of the ribonucleolytic activity of angiogenin (angiogenin (ANG); 20 mM Hepes, 100 mM NaCl, pH 7.0, 37° C.): indistinguishable from that of the NCI compound
Percentage of Tumor-Bearing Mice, day 14 ([2]; 4 μg s.c. 6 times per week): 8%
Percentage of Tumor-Bearing Mice, day 17 ([2]; 4 μg s.c. 6 times per week): 42%
Percentage of Tumor-Bearing Mice, day 21 ([2]; 4 μg s.c. 6 times per week): 67%
Percentage of Tumor-Bearing Mice, day 24 ([2]; 4 μg s.c. 6 times per week): 100%
Percentage of Tumor-Bearing Mice, day 32 ([2]; 4 μg s.c. 6 times per week): 100%
Percentage of Tumor-Bearing Mice, day 35 ([2]; 4 μg s.c. 6 times per week): 100%
Percentage of Tumor-Bearing Mice, day 14 ([2]; 8 μg s.c. 6 times per week): 0%
Percentage of Tumor-Bearing Mice, day 17 ([2]; 8 μg s.c. 6 times per week): 45%
Percentage of Tumor-Bearing Mice, day 21 ([2]; 8 μg s.c. 6 times per week): 55%
Percentage of Tumor-Bearing Mice, day 24 ([2]; 8 μg s.c. 6 times per week): 82%
Percentage of Tumor-Bearing Mice, day 32 ([2]; 8 μg s.c. 6 times per week): 91%
Percentage of Tumor-Bearing Mice, day 35 ([2]; 8 μg s.c. 6 times per week): 100%
Percentage of Tumor-Bearing Mice, day 14 ([2]; 20 μg s.c. 6 times per week): 0%
Percentage of Tumor-Bearing Mice, day 17 ([2]; 20 μg s.c. 6 times per week): 25%
Percentage of Tumor-Bearing Mice, day 21 ([2]; 20 μg s.c. 6 times per week): 33%
Percentage of Tumor-Bearing Mice, day 24 ([2]; 20 μg s.c. 6 times per week): 92%
Percentage of Tumor-Bearing Mice, day 32 ([2]; 20 μg s.c. 6 times per week): 100%
Percentage of Tumor-Bearing Mice, day 35 ([2]; 20 μg s.c. 6 times per week): 100%
Percentage of Tumor-Bearing Mice, day 14 ([2]; 40 μg s.c. 6 times per week): 8%
Percentage of Tumor-Bearing Mice, day 17 ([2]; 40 μg s.c. 6 times per week): 33%
Percentage of Tumor-Bearing Mice, day 21 ([2]; 40 μg s.c. 6 times per week): 33%
Percentage of Tumor-Bearing Mice, day 24 ([2]; 40 μg s.c. 6 times per week): 83%
Percentage of Tumor-Bearing Mice, day 32 ([2]; 40 μg s.c. 6 times per week): 92%
Percentage of Tumor-Bearing Mice, day 35 ([2]; 40 μg s.c. 6 times per week): 100%
Time of appearance of tumors (Example 3, Table 1) ([2]; treatment s.c. 6 times per week): delayed considerably the time of appearance of tumors

Ki (angiogenin (ANG); read-out: KI): 70 µM
Compound: CC(=O)Nc1ccc(/N=N/c2c(N)ccc3cc(S(=O)(=O)O)cc(O)c23)c(S(=O)(=O)O)c1 [acid red 37]

Ki (angiogenin (ANG); [4]): 71 µM
Compound: CC(=O)Nc1ccc(N=Nc2c(S(=O)(=O)O)cc3cc(S(=O)(=O)O)cc(NC(C)=O)c3c2O)cc1 [acid violet 7]

Ki (angiogenin (ANG); read-out: KI): 14 µM
Compound: Nc1ccc2cc(S(=O)(=O)O)cc(O)c2c1/N=N/c1ccc(-c2ccc(/N=N/c3ccc(O)c(C(=O)O)c3)cc2)cc1 [direct red 1]

Ki (angiogenin (ANG); read-out: KI): 112 µM
Compound: Nc1ccc2cc(S(=O)(=O)O)cc(O)c2c1N=Nc1ccc(-c2ccc(N=Nc3cc(S(=O)(=O)O)c4ccccc4c3N)cc2)cc1 [direct red 13]

Ki (angiogenin (ANG); read-out: KI): 69 µM
Compound: O=S(=O)(O)c1cc(S(=O)(=O)O)c2c(/N=N/c3ccc(S(=O)(=O)O)c4ccccc34)c(O)ccc2c1 [new coccine]

Ki (angiogenin (ANG); read-out: KI): 20 µM
Compound: Cc1cc(-c2ccc(/N=N/c3c(N)ccc4cc(S(=O)(=O)O)ccc34)c(C)c2)ccc1N [prBZBP]

Ki (angiogenin (ANG); read-out: KI): 85 µM
Compound: O=S(=O)(O)c1ccc(/N=N/c2c(O)ccc3cc(S(=O)(=O)O)ccc23)cc1 [sunset yellow]

Ki (angiogenin (ANG); read-out: KI): 10 µM
Compound: Cc1ccc(C(=O)Nc2ccc(S(=O)(=O)O)c3cc(S(=O)(=O)O)cc(S(=O)(=O)O)c23)cc1NC(=O)c1cccc(NC(=O)Nc2cccc(C(=O)Nc3cc(C(=O)Nc4ccc(S(=O)(=O)O)c5cc(S(=O)(=O)O)cc(S(=O)(=O)O)c45)ccc3C)c2)c1 [suramin, reference compound]

Ki (angiogenin (ANG); read-out: KI): 107 µM
Compound: Cc1cc(S(=O)(=O)O)ccc1N=c1ccc2c(-c3ccccc3C(=O)O)c3ccc(Nc4ccccc4C)cc3oc-2c1 [violamine R]

Compound: Cc1ccc(/N=N/c2c(O)c(S(=O)(=O)O)cc3cc(S(=O)(=O)O)ccc23)c(C)c1 [xylidene ponceau 2R]
Ki (angiogenin (ANG)): 49 µM

Compound: Benzopurpurin B
Ki (angiogenin (ANG); [3]): 5 µM
Ki (angiogenin (ANG); [4]): 5 µM
Protection of total RNA from degradation (E. coli RNase I): significant protection from RNA degradation

Ki (angiogenin (ANG); [4]): 201 µM
Compound: cefsulodin [reference compound]

Ki (angiogenin (ANG); [4]): 50 µM
Compound: eriochrome black T
